# Results reported in ChEMBL document CHEMBL4814005, “Pragmatic recruitment of memantine as the capping group for the design of HDAC inhibitors: A preliminary attempt to unravel the enigma of glioblastoma” (Eur J Med Chem, 2021).
# Calls of active or inactive are those of the source. No cut-off for these calls is given here.
# Legend:
# U-87 MG [1] = assay: Antiproliferation activity against human U-87 MG cells assessed as growth inhibition measured after 1 hr by MTT assay; assay type: functional, cell-based, U-87MG ATCC
# U-87 MG [2] = assay: Antiproliferation activity against human U-87 MG cells assessed as growth inhibition at 10 uM after 3 days by MTT assay; assay type: functional, U-87MG ATCC; conditions: 72 h, time 3 day
# U-87 MG [3] = assay: Antiproliferation activity against TMZ resistant human U-87 MG R-50 cells assessed as growth inhibition at 3 uM by MTT assay; assay type: functional, cell-based; conditions: U-87MG ATCC
# Glioblastoma cell line [4] = assay: Antiproliferation activity against TMZ resistant human glioblastoma cell P1S assessed as growth inhibition at 3 uM by MTT assay; assay type: functional
# A 172 [5] = assay: Downregulation of PCNA expression in human A 172 cells upto 10 uM measured after 24 hrs by Western blot analysis; assay type: functional, cell-based; conditions: dose microM <=10, time 24.0 hrs
# A 172 [6] = assay: Induction of cell cycle arrest in human A 172 cells assessed as accumulation at G2/M phase by propidium iodide staining based flow cytometric analysis; assay type: functional; conditions: dose microM <=10
# A 172 [7] = assay: Induction of cell cycle arrest in human A 172 cells assessed as accumulation at G0/G1 phase by propidium iodide staining based flow cytometric analysis; assay type: functional; conditions: dose microM <=10
# A 172 [8] = assay: Effect on cyclin B1 expression in human A 172 cells upto 10 uM after 24 hrs by Western blot analysis; assay type: functional, cell-based; conditions: dose microM <=10, time 24.0 hrs
# A 172 [9] = assay: Induction of cell cycle arrest in human A 172 cells assessed as increase in histone H3-K9/K14 acetylation upto 10 uM for 24 hrs by Western blot analysis; assay type: functional, cell-based; conditions: dose microM <=10, time 24.0 hrs
# A 172 [10] = assay: Induction of cell cycle arrest in human A 172 cells assessed as increase in histone H3-S10 dephosphorylation upto 10 uM for 24 hrs by Western blot analysis; assay type: functional, cell-based; conditions: dose microM <=10, time 24.0 hrs
# A 172 [11] = assay: Induction of cell cycle arrest in human A 172 cells assessed as increase in histone alpha-tubulin-K40 acetylation upto 10 uM for 24 hrs by Western blot analysis; assay type: functional, cell-based; conditions: dose microM <=10, time 24.0 hrs
# [12] = biological target: Cyclin-dependent kinase 1/cyclin B1 (Homo sapiens) (UniProt P06493+P14635); assay: Inhibition of CDK1/Cyclin B interaction in human A 172 cells assessed as CDK1 acetylation at 3 uM for 24 hrs by Western blot analysis; assay type: cell-based
# A 172 [13] = assay: Induction of apoptosis in human A 172 cells assessed as upregulation of activated caspase 3 protein at 3 uM after 24 hrs by western blot analysis; assay type: functional, cell-based
# A 172 [14] = assay: Induction of apoptosis in human A 172 cells assessed as upregulation of cleaved PARP at 3 uM after 24 hrs by western blot analysis; assay type: functional, cell-based
# A 172 [15] = assay: Cytotoxicity against human A 172 cells assessed as reduction in cell viability upto 72 hrs by MTT assay; assay type: functional, cell-based; conditions: dose microM <=30, time hrs <=72
# A 172 [16] = assay: Cytotoxicity against TMZ-resistant human A 172 cells assessed as reduction in cell viability upto 72 hrs by MTT assay; assay type: functional, cell-based; conditions: dose microM <=30, time hrs <=72
# U-87 MG [17] = assay: Cytotoxicity against TMZ-resistant human U-87 MG cells assessed as reduction in cell viability upto 72 hrs by MTT assay; assay type: functional, cell-based; conditions: U-87MG ATCC, dose microM <=30, time hrs <=72
# Glioblastoma cell line [18] = assay: Cytotoxicity against human glioblastoma cell P3 cells assessed as reduction in cell viability upto 72 hrs by MTT assay; assay type: functional, cell-based; conditions: dose microM <=30, time hrs <=72
# Glioblastoma cell line [19] = assay: Cytotoxicity against TMZ-resistant human glioblastoma cell P3 cells assessed as reduction in cell viability upto 72 hrs by MTT assay; assay type: functional, cell-based; conditions: dose microM <=30, time hrs <=72
# Glioblastoma cell line [20] = assay: Cytotoxicity against human glioblastoma cell P5 cells assessed as reduction in cell viability upto 72 hrs by MTT assay; assay type: functional, cell-based; conditions: dose microM <=30, time hrs <=72
# Glioblastoma cell line [21] = assay: Cytotoxicity against TMZ-resistant human glioblastoma cell P5 cells assessed as reduction in cell viability upto 72 hrs by MTT assay; assay type: functional, cell-based; conditions: dose microM <=30, time hrs <=72
# Glioblastoma cell line [22] = assay: Cytotoxicity against human glioblastoma cell P1S cells assessed as reduction in cell viability upto 72 hrs by MTT assay; assay type: functional, cell-based; conditions: dose microM <=30, time hrs <=72
# Histone deacetylase 3 = Histone deacetylase 3 (Homo sapiens, UniProt O15379); assay: Inhibition of human recombinant HDAC3 using [RHKK(Ac)] fluorogenic substrate
# Histone deacetylase 8 = biological target: T1, Histone deacetylase 8 (Homo sapiens, UniProt Q9BY41); assay: Inhibition of human recombinant HDAC8 using [RHKK(Ac)] fluorogenic substrate
# T1 sequence (Q9BY41 whole entry): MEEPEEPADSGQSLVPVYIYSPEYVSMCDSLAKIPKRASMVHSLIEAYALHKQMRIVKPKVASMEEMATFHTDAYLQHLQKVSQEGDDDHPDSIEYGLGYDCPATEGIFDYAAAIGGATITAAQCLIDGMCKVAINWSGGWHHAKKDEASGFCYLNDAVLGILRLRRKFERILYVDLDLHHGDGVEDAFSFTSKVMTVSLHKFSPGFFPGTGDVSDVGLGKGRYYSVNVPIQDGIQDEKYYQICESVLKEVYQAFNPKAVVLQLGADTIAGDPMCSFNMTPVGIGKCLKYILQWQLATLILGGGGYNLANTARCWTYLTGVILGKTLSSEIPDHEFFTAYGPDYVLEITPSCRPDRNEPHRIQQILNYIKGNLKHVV
# [23] = Permeability of compound by PAMPA-BBB assay
# U-87 MG [24] = assay: Antitumor activity in TMZ-resistant human U-87 MG cells transplanted in BALB/C mouse assessed as increase in mouse survival at 10 mg/kg, ip measured for every 2 days measured for 40 days; assay type: functional, organism-based; conditions: U-87MG ATCC, time 40.0 day
# A 172 [25] = assay: Induction of cell cycle arrest in human A172 cells assessed as accumulation at G1/S phase measured by increase in cyclin E expression upto 10 uM after 24 hrs by Western blot analysis; assay type: functional, cell-based; conditions: dose microM <=10, time 24.0 hrs
# A 172 [26] = assay: Cytotoxicity against human A 172 cells assessed as reduction in cell viability upto 30 uM by MTT assay; assay type: functional, cell-based; conditions: dose microM <=30, time hrs <=72, TDE = time-dependent effect
# A 172 [27] = assay: Cytotoxicity against TMZ-resistant human A 172 cells assessed as reduction in cell viability upto 30 uM by MTT assay; assay type: functional, cell-based; conditions: dose microM <=30, time hrs <=72, TDE = time-dependent effect
# U-87 MG [28] = assay: Cytotoxicity against human U-87 MG cells assessed as reduction in cell viability upto 30 uM by MTT assay; assay type: functional, cell-based; conditions: U-87MG ATCC, dose microM <=30, time hrs <=72, TDE = time-dependent effect
# U-87 MG [29] = assay: Cytotoxicity against TMZ-resistant human U-87 MG cells assessed as reduction in cell viability upto 30 uM by MTT assay; assay type: functional, cell-based; conditions: U-87MG ATCC, dose microM <=30, time hrs <=72, TDE = time-dependent effect
# Glioblastoma cell line [30] = assay: Cytotoxicity against human glioblastoma cell P3 cells assessed as reduction in cell viability upto 30 uM by MTT assay; assay type: functional, cell-based; conditions: dose microM <=30, time hrs <=72, TDE = time-dependent effect
# Glioblastoma cell line [31] = assay: Cytotoxicity against human glioblastoma cell P5 cells assessed as reduction in cell viability upto 30 uM by MTT assay; assay type: functional, cell-based; conditions: dose microM <=30, time hrs <=72, TDE = time-dependent effect
# Glioblastoma cell line [32] = assay: Cytotoxicity against TMZ-resistant human glioblastoma cell P5 cells assessed as reduction in cell viability upto 30 uM by MTT assay; assay type: functional, cell-based; conditions: dose microM <=30, time hrs <=72, TDE = time-dependent effect
# Glioblastoma cell line [33] = assay: Cytotoxicity against human glioblastoma cell P1S cells assessed as reduction in cell viability upto 30 uM by MTT assay; assay type: functional, cell-based; conditions: dose microM <=30, time hrs <=72, TDE = time-dependent effect
# Sequence of Cyclin-dependent kinase 1/cyclin B1 (Homo sapiens) (P06493 whole entry, looked up): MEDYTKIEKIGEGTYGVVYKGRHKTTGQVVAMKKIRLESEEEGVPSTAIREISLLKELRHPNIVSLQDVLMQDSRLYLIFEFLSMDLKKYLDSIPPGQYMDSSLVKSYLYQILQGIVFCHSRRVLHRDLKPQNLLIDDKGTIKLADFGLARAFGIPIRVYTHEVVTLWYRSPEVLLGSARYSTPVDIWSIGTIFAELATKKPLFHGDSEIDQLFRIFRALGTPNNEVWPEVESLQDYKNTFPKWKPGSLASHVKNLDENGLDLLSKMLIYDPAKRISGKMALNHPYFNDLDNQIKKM
# Sequence of Cyclin-dependent kinase 1/cyclin B1 (Homo sapiens) (P14635 whole entry, looked up): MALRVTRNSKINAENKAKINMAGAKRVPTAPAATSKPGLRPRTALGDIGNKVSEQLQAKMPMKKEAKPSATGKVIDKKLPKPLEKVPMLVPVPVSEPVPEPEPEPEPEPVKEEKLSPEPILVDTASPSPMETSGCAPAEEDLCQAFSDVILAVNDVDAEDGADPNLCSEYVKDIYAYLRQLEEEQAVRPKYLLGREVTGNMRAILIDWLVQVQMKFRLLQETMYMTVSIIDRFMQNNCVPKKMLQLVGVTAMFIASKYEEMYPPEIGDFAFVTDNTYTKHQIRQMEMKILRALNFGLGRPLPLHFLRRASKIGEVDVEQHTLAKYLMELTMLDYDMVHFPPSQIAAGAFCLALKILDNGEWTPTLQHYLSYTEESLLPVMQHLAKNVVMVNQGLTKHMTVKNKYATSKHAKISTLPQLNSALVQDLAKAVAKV
# Sequence of Histone deacetylase 3 (O15379 whole entry): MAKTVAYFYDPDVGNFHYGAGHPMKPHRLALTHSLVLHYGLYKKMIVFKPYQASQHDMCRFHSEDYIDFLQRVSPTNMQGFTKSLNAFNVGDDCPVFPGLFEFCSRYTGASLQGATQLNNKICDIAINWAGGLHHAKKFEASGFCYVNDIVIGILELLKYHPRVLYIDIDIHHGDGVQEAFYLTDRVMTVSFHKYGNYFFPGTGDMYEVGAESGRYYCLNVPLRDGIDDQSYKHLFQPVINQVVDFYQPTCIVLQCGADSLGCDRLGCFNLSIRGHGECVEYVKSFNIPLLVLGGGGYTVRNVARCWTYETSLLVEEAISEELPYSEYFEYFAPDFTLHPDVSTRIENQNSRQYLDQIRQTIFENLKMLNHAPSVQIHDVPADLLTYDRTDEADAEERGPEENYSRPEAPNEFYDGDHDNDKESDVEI
compound,measurement,setting,value
CC12CC3CC(C)(C1)CC(NCc1ccc(NC(=O)CCCCCCC(=O)NO)cc1)(C3)C2,IC50,U-87 MG [1],2950 nM
same,inhibition at 10 µM,U-87 MG [2],90%
same,Activity,U-87 MG [3],inactive
same,Activity,Glioblastoma cell line [4],inactive
same,Activity,A 172 [5],inactive
same,Activity,A 172 [6],Dose-Dependent Effect
same,Activity,A 172 [7],Dose-Dependent Effect
same,Activity,A 172 [8],inactive
same,Activity,A 172 [9],Active
same,Activity,A 172 [10],Active
same,Activity,A 172 [11],Active
same,Activity,[12],Active
same,Activity,A 172 [13],Active
same,Activity,A 172 [14],Active
same,Activity,A 172 [15],Dose-Dependent Effect
same,Activity,A 172 [16],Dose-Dependent Effect
same,Activity,U-87 MG [17],Dose-Dependent Effect
same,Activity,Glioblastoma cell line [18],Dose-Dependent Effect
same,Activity,Glioblastoma cell line [19],Dose-Dependent Effect
same,Activity,Glioblastoma cell line [20],Dose-Dependent Effect
same,Activity,Glioblastoma cell line [21],Dose-Dependent Effect
same,Activity,Glioblastoma cell line [22],Dose-Dependent Effect
same,IC50,Histone deacetylase 3,806 nM
same,IC50,Histone deacetylase 8,638 nM
same,Papp,[23],339 ×10⁻⁶ cm/s
same,Activity,U-87 MG [24],Active
same,Activity,A 172 [25],Active
same,Activity,A 172 [26],Tde
same,Activity,A 172 [27],Tde
same,Activity,U-87 MG [28],Tde
same,Activity,U-87 MG [29],Tde
same,Activity,Glioblastoma cell line [30],Tde
same,Activity,Glioblastoma cell line [31],Tde
same,Activity,Glioblastoma cell line [32],Tde
same,Activity,Glioblastoma cell line [33],Tde
